In one experiment the target is T1, TYK2 JH2 (Homo sapiens, UniProt P29597).
T1 construct: purchased DiscoverX (KINOMEscan KdELECT service); host or cells: E. coli BL21-derived (T7 phage display) or HEK-293
Briefly: TYK2 JH2 binding assay (KINOMEscan KdELECT competitive binding). The note with it: TYK2 JH2 domain, KINOMEscan KdELECT (Assay A); read-out: Biochemical TYK2_DiscoverX_JH2_BND_Kd. The essentials:
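The assay measures displacement of DNA- or phage-tagged TYK2 pseudokinase domain from an affinity resin; compound binding lowers the amount captured, read by qPCR. Incubation lasts 1 h at room temperature.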

In experiment [1] the test system is JAK1/TYK2 pSTAT5 (Tyr694/699) in THP-1 cell line. Briefly: IFNa-stimulated JAK1/TYK2 pSTAT5 (Tyr694/699) inhibition cellular assay, AlphaLISA. It counts as cell-based. The conditions noted are these: Homo sapiens; THP-1 cells, IFNa-stimulated, AlphaLISA (Assay B); read-out: Cellular_THP1_IFNa-pSTATS_TYK2. The essentials: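 The readout is AlphaLISA signal at 615 nm for phospho-STAT5 in THP-1 lysates after IFNa stimulation (added at 100 ng/mL, 30 min, 37 °C). Cells had compound for 1 h beforehand across eight 6-fold concentrations up to 10000 nM final. IC50s are 4PL fits with bottom and Hill slope constrained.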
In general terms: Bead proximity is the source of the signal in Alpha formats.

The structures appear in SMILES notation. Some results are limits rather than exact numbers.

T1 sequence (P29597 589-875 limits assumed): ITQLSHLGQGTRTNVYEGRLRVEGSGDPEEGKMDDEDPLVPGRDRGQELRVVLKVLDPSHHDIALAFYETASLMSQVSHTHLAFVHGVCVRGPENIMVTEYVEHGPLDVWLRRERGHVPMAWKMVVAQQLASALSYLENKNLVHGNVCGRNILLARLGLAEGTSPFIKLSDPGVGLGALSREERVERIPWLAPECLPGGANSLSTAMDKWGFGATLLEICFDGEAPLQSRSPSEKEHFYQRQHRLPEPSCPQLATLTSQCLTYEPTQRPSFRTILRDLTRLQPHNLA

As to `CNc1ncc(C#Cc2ccc3c(C)noc3c2)c2cc(NC(=O)C3CC3)ncc12` [Example 748, N-(8-(methylamino)-5-((3-methylbenzo[d]isoxazol-6-yl)ethynyl)-2,7-naphthyridin-3-yl)cyclopropanecarboxamide], the Kd at TYK2 JH2 was no more than 100 nM. In addition, in experiment [1], the IC50 was no more than 500 nM.
Taken in the same sequence, the figures for `CNc1ncc(C#Cc2ccc(C(C)=O)c(O)c2)c2cc(NC(=O)C3CC3)ncc12` [Example 749, N-(5-((4-acetyl-3-hydroxyphenyl)ethynyl)-8-(methylamino)-2,7-naphthyridin-3-yl)cyclopropanecarboxamide] were no more than 100 nM and no more than 500 nM.
The like results for `CCNc1ncc(C#Cc2ccc3nc4n(c3c2)CCOC4)c2cc(NC(=O)C3CC3)ncc12` [Example 750, N-(5-((3,4-dihydro-1H-benzo[4,5]imidazo[2,1-c][1,4]oxazin-7-yl)ethynyl)-8-(ethylamino)-2,7-naphthyridin-3-yl)cyclopropanecarboxamide] were, in that order, no more than 100 nM and no more than 500 nM.
Regarding `CNc1ncc(C#Cc2ccc3nnn(C)c3c2)c2cc(Nc3ccccn3)ncc12` [Example 751, N^1-methyl-4-((1-methyl-1H-benzo[d][1,2,3]triazol-6-yl)ethynyl)-N^6-(pyridin-2-yl)-2,7-naphthyridine-1,6-diamine], on TYK2 JH2, the Kd is no more than 100 nM. In experiment [1], the IC50 was no more than 500 nM.
In the case of `CNc1ncc(C#Cc2ccc(OC)cc2)c2cc(NC(=O)[C@@H]3C[C@@H]3F)ncc12` [Example 752, (1S,2S)-2-fluoro-N-(5-((4-methoxyphenyl)ethynyl)-8-(methylamino)-2,7-naphthyridin-3-yl)cyclopropane-1-carboxamide], the Kd on TYK2 JH2 is no more than 100 nM. Moreover, in experiment [1], the IC50 was no more than 500 nM.
For `CNc1ncc(C#Cc2ccc(OC)cc2)c2cc(NC(=O)[C@H]3C[C@H]3C)ncc12` [Example 753, (1S,2R)—N-(5-((4-methoxyphenyl)ethynyl)-8-(methylamino)-2,7-naphthyridin-3-yl)-2-methylcyclopropane-1-carboxamide], at TYK2 JH2, the Kd is no more than 100 nM. In experiment [1], the IC50 is no more than 500 nM.
On to `CNc1ncc(C#Cc2ccc3nc4n(c3c2)CCOC4)c2cc(NC(=O)C3(F)CC3)ncc12` [Example 758, N-(5-((3,4-dihydro-1H-benzo[4,5]imidazo[2,1-c][1,4]oxazin-7-yl)ethynyl)-8-(methylamino)-2,7-naphthyridin-3-yl)-1-fluorocyclopropane-1-carboxamide], for which, on TYK2 JH2, the Kd is no more than 100 nM. For the same molecule, the IC50 in experiment [1] is no more than 500 nM.
As for `CNc1ncc(C#Cc2ccc3nnn(C)c3c2)c2cc(NC(=O)C3(F)CC3)ncc12` [Example 759, 1-fluoro-N-(5-((1-methyl-1H-benzo[d][1,2,3]triazol-6-yl)ethynyl)-8-(methylamino)-2,7-naphthyridin-3-yl)cyclopropane-1-carboxamide], the Kd on TYK2 JH2 is no more than 100 nM. Besides, the IC50 in experiment [1] was greater than 500 nM.
In the case of `CNc1ncc(C#Cc2ccc(OC3CN(C(C)=O)C3)cc2)c2cc(NC(=O)C3(F)CC3)ncc12` [Example 760, N-(5-((4-((1-acetylazetidin-3-yl)oxy)phenyl)ethynyl)-8-(methylamino)-2,7-naphthyridin-3-yl)-1-fluorocyclopropane-1-carboxamide], the Kd on TYK2 JH2 is no more than 100 nM. For the same molecule, in experiment [1], the IC50 is no more than 500 nM.
In the case of `CCn1c(C)nc2ccc(C#Cc3cnc(NC)c4cnc(NC(=O)C5CC5)cc34)cc21` [Example 761, N-(5-((1-ethyl-2-methyl-1H-benzo[d]imidazol-6-yl)ethynyl)-8-(methylamino)-2,7-naphthyridin-3-yl)cyclopropanecarboxamide], on TYK2 JH2, the Kd is no more than 100 nM. Also, the IC50 in experiment [1] is no more than 500 nM.
Taken in the same sequence, the figures for `CCn1c(C)nc2cc(C#Cc3cnc(NC)c4cnc(NC(=O)C5CC5)cc34)ccc21` [Example 762, N-(5-((1-ethyl-2-methyl-1H-benzo[d]imidazol-5-yl)ethynyl)-8-(methylamino)-2,7-naphthyridin-3-yl)cyclopropanecarboxamide] were no more than 100 nM and no more than 500 nM.
On to `CNc1ncc(C#Cc2ccc3nc(C)n(C(F)F)c3c2)c2cc(NC(=O)C3CC3)ncc12` [Example 763, N-(5-((1-(difluoromethyl)-2-methyl-1H-benzo[d]imidazol-6-yl)ethynyl)-8-(methylamino)-2,7-naphthyridin-3-yl)cyclopropanecarboxamide], for which, at TYK2 JH2, the Kd was no more than 100 nM. Moreover, in experiment [1], the IC50 was no more than 500 nM.
In the case of `CNc1ncc(C#Cc2ccc3c(c2)nc(C)n3C(F)F)c2cc(NC(=O)C3CC3)ncc12` [Example 764, A-(5-((1-(difluoromethyl)-2-methyl-1H-benzo[d]imidazol-5-yl)ethynyl)-8-(methylamino)-2,7-naphthyridin-3-yl)cyclopropanecarboxamide], the Kd at TYK2 JH2 is no more than 100 nM. Also, in experiment [1], the IC50 was no more than 500 nM.
As for `CNc1ncc(-c2cc3ccc(OC)cn3n2)c2cc(NC(=O)C3CC3)ncc12` [Example 765, N-(5-(6-methoxypyrazolo[1,5-a]pyridin-2-yl)-8-(methylamino)-2,7-naphthyridin-3-yl)cyclopropanecarboxamide], the Kd at TYK2 JH2 was no more than 100 nM. In experiment [1], the IC50 is no more than 500 nM.
Consider `CNc1ncc(C#Cc2cc3ccc(OC)cn3n2)c2cc(NC(=O)C3CC3)ncc12` [Example 766, N-(5-((6-methoxypyrazolo[1,5-a]pyridin-2-yl)ethynyl)-8-(methylamino)-2,7-naphthyridin-3-yl)cyclopropanecarboxamide], for which, at TYK2 JH2, the Kd was no more than 100 nM. Besides, the IC50 in experiment [1] was no more than 500 nM.
Consider `CNc1ncc(C#Cc2cc3ccc(F)cn3n2)c2cc(NC(=O)C3CC3)ncc12` [Example 767, N-(5-((6-fluoropyrazolo[1,5-a]pyridin-2-yl)ethynyl)-8-(methylamino)-2,7-naphthyridin-3-yl)cyclopropanecarboxamide], for which the Kd at TYK2 JH2 is no more than 100 nM. Further, the IC50 in experiment [1] was no more than 500 nM.
As for `CNc1ncc(C#Cc2ccc(OC[C@@H]3COCCO3)cc2)c2cc(NC(=O)C3CC3)ncc12` [Example 768, (S)—N-(5-((4-((1,4-dioxan-2-yl)methoxy)phenyl)ethynyl)-8-(methylamino)-2,7-naphthyridin-3-yl)cyclopropanecarboxamide], on TYK2 JH2, the Kd is no more than 100 nM. Moreover, the IC50 in experiment [1] is no more than 500 nM.
Taken in the same sequence, the figures for `CNc1ncc(C#Cc2ccc(P(C)(C)=O)cc2)c2cc(NC(=O)C3CC3)ncc12` [Example 769, N-(5-((4-(dimethylphosphoryl)phenyl)ethynyl)-8-(methylamino)-2,7-naphthyridin-3-yl)cyclopropanecarboxamide] were no more than 100 nM and no more than 500 nM.
In the case of `CCC(=O)N1CC(Oc2ccc(C#Cc3cnc(NC)c4cnc(NC(=O)C5CC5)cc34)cc2)C1` [Example 770, N-(8-(methylamino)-5-((4-((1-propionylazetidin-3-yl)oxy)phenyl)ethynyl)-2,7-naphthyridin-3-yl) cyclopropanecarboxamide], the Kd on TYK2 JH2 is no more than 100 nM. Further, in experiment [1], the IC50 is no more than 500 nM.
In the case of `CNc1ncc(C#Cc2ccc(OC3CN(C(=O)C4CC4)C3)cc2)c2cc(NC(=O)C3CC3)ncc12` [Example 771, N-(5-((4-((1-(cyclopropanecarbonyl)azetidin-3-yl)oxy)phenyl)ethynyl)-8-(methylamino)-2,7-naphthyridin-3-yl)cyclopropanecarboxamide], the Kd on TYK2 JH2 was no more than 100 nM. Besides, in experiment [1], the IC50 is no more than 500 nM.
For the molecule `CNc1ncc(C#Cc2ccc(-n3nccn3)cc2)c2cc(NC(=O)C3CC3)ncc12` [Example 772, N-(5-((4-(2H-1,2,3-triazol-2-yl)phenyl)ethynyl)-8-(methylamino)-2,7-naphthyridin-3-yl)cyclopropanecarboxamide], the Kd on TYK2 JH2 is no more than 100 nM. Besides, the IC50 in experiment [1] is no more than 500 nM.
The like results for `CNc1ncc(C#Cc2ccc3nc(C(C)(F)F)n(C)c3c2)c2cc(NC(=O)C3CC3)ncc12` [Example 773, N-(5-((2-(1,1-difluoroethyl)-1-methyl-1H-benzo[d]imidazol-6-yl)ethynyl)-8-(methylamino)-2,7-naphthyridin-3-yl)cyclopropanecarboxamide] were, in that order, no more than 100 nM and no more than 500 nM.
As to `CNc1ncc(C#Cc2ccc3nc(CC(F)(F)F)n(C)c3c2)c2cc(NC(=O)C3CC3)ncc12` [Example 774, N-(5-((1-methyl-2-(2,2,2-trifluoroethyl)-1H-benzo[d]imidazol-6-yl)ethynyl)-8-(methylamino)-2,7-naphthyridin-3-yl)cyclopropanecarboxamide], the Kd on TYK2 JH2 is no more than 100 nM. For the same molecule, in experiment [1], the IC50 is no more than 500 nM.
`CNc1ncc(C#Cc2ccc3nc(C(F)F)n(C)c3c2)c2cc(NC(=O)[C@H]3C[C@H]3C)ncc12` [Example 775, (1S,2R)—N-(5-((2-(difluoromethyl)-1-methyl-1H-benzo[d]imidazol-6-yl)ethynyl)-8-(methylamino)-2,7-naphthyridin-3-yl)-2-methylcyclopropane-1-carboxamide]: the Kd on TYK2 JH2 was no more than 100 nM. For the same molecule, the IC50 in experiment [1] is no more than 500 nM.
As for `[2H]C([2H])([2H])Nc1ncc(C#Cc2ccc(OC)cn2)c2cc(NC(=O)C3CC3)ncc12` [Example 778, N-(5-((5-methoxypyridin-2-yl)ethynyl)-8-((methyl-d3)amino)-2,7-naphthyridin-3-yl)cyclopropanecarboxamide], the Kd on TYK2 JH2 was no more than 100 nM. Further, in experiment [1], the IC50 was no more than 500 nM.

For the origin of these results see patent US20240025906A1 (NEURON23, INC., priority 2022, published 2024).
